Assay results: the supplement of paper PMC10307832

How the values were obtained:
Experiment in all cases: relative viability (nuclei count vs DMSO), 5 days (fraction); higher = more cells survive
Ricolinostat + Foretinib = compound: O=C(CCCCCCNC(=O)c1cnc(N(c2ccccc2)c2ccccc2)nc1)NO [Ricolinostat] + COc1cc2c(Oc3ccc(NC(=O)C4(C(=O)Nc5ccc(F)cc5)CC4)cc3F)ccnc2cc1OCCCN1CCOCC1 [Foretinib] (partner 0.25 µM)
Procedure, shortened: (§1)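 Lung cancer cell lines in 1536-well plates were dosed by pin tool the day after seeding, either with one drug alone or with a fixed anchor-drug dose plus five library-drug doses (not always all listed) in √10 steps. After 5 days, cells were fixed and their nuclei stained in one step (final 0.05% Triton X-100, 1% formaldehyde, 1 ug/ml Hoechst), then counted on 4× images. Relative viability is the nuclei count in treated wells divided by that in vehicle wells. Values are medians of duplicate plates.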

Ricolinostat + OSI-027 = compound: O=C(CCCCCCNC(=O)c1cnc(N(c2ccccc2)c2ccccc2)nc1)NO [Ricolinostat] + COc1cccc2cc(-c3nc([C@H]4CC[C@H](C(=O)O)CC4)n4ncnc(N)c34)[nH]c12 [OSI-027] (partner 0.5 µM)
Procedure, shortened: as §1

[1] = compound: O=C(CCCCCCNC(=O)c1cnc(N(c2ccccc2)c2ccccc2)nc1)NO [Ricolinostat] + C[C@@H](Oc1cc(-c2cnn(C3CCNCC3)c2)cnc1N)c1c(Cl)ccc(F)c1Cl [Crizotinib] (partner 1 µM)
Procedure, shortened: as §1

[2] = compound: O=C(CCCCCCNC(=O)c1cnc(N(c2ccccc2)c2ccccc2)nc1)NO [Ricolinostat] + Cc1cc(Nc2cc(N3CCN(C)CC3)nc(Sc3ccc(NC(=O)C4CC4)cc3)n2)n[nH]1 [Tozasertib] (partner 0.1 µM)
Procedure, shortened: as §1

Ricolinostat + Alpelisib = compound: O=C(CCCCCCNC(=O)c1cnc(N(c2ccccc2)c2ccccc2)nc1)NO [Ricolinostat] + Cc1nc(NC(=O)N2CCC[C@H]2C(N)=O)sc1-c1ccnc(C(C)(C)C(F)(F)F)c1 [Alpelisib] (partner 2 µM)
Procedure, shortened: as §1

| Cell Line | relative viability (Ricolinostat + Foretinib; first compound 0.08 µM) | relative viability (Ricolinostat + Foretinib; first compound 0.253 µM) | relative viability (Ricolinostat + Foretinib; first compound 0.8 µM) | relative viability (Ricolinostat + Foretinib; first compound 2.53 µM) | relative viability (Ricolinostat + OSI-027; first compound 0.08 µM) | relative viability (Ricolinostat + OSI-027; first compound 0.253 µM) | relative viability (Ricolinostat + OSI-027; first compound 0.8 µM) | relative viability (Ricolinostat + OSI-027; first compound 2.53 µM) | relative viability ([1]; first compound 0.08 µM) | relative viability ([1]; first compound 0.253 µM) | relative viability ([1]; first compound 0.8 µM) | relative viability ([1]; first compound 2.53 µM) | relative viability ([2]; first compound 0.08 µM) | relative viability ([2]; first compound 0.253 µM) | relative viability ([2]; first compound 0.8 µM) | relative viability ([2]; first compound 2.53 µM) | relative viability (Ricolinostat + Alpelisib; first compound 0.08 µM) | relative viability (Ricolinostat + Alpelisib; first compound 0.253 µM) | relative viability (Ricolinostat + Alpelisib; first compound 0.8 µM) | relative viability (Ricolinostat + Alpelisib; first compound 2.53 µM) |
| --- | --- | --- | --- | --- | --- | --- | --- | --- | --- | --- | --- | --- | --- | --- | --- | --- | --- | --- | --- | --- |
| NCI-H1437 | 1.12 | 1.28 | 1.17 | 1.05 | 0.729 | 0.864 | 0.774 | 0.502 | 0.825 | 0.931 | 0.918 | 0.765 | 0.341 | 0.4 | 0.367 | 0.315 | 0.888 | 1.03 | 0.907 | 0.722 |
| NCI-H1915 | 1.07 | 1.03 | 1.07 | 1.03 | 0.525 | 0.65 | 0.623 | 0.421 | 0.853 | 0.868 | 0.882 | 0.809 | 0.438 | 0.455 | 0.385 | 0.377 | 1.01 | 1.06 | 1.01 | 0.962 |
| NCI-H441 |  | 0.878 | 0.872 | 0.921 |  | 0.725 | 0.595 | 0.59 | 0.587 | 0.625 | 0.615 | 0.633 |  | 0.69 | 0.561 | 0.474 | 0.597 | 0.596 | 0.803 | 0.539 |
| SW 1573 | 0.863 | 1.12 | 0.899 | 0.918 | 0.588 | 0.612 | 0.647 | 0.501 | 0.761 | 0.851 | 0.784 | 0.733 | 0.277 | 0.193 | 0.165 | 0.242 | 0.506 | 0.862 | 0.751 | 0.832 |
| NCI-H661 | 0.849 | 0.983 | 1 | 0.81 | 0.501 | 0.669 | 0.712 | 0.652 |  | 0.99 | 0.973 | 0.984 | 0.354 | 0.364 | 0.288 | 0.281 |  | 0.597 | 0.642 | 0.844 |
| PC-3 [JPC-3] |  | 0.933 | 0.969 | 0.827 |  | 0.768 | 0.708 | 0.491 | 1.01 | 0.902 | 0.963 | 0.829 |  | 0.84 | 0.851 | 0.771 | 0.941 | 0.996 | 0.948 | 0.909 |
| 201T |  | 1.09 | 1.14 | 1.08 | 0.631 | 0.707 | 0.7 | 0.92 | 0.926 | 1.04 | 1.08 | 1.07 | 0.909 | 0.932 | 0.829 | 0.612 | 0.905 | 0.946 | 1.03 | 0.887 |
| LK-2 | 1.18 | 1.35 | 1.51 | 0.934 | 0.202 | 0.234 | 0.212 | 0.208 |  | 0.259 | 0.213 | 0.253 | 0.181 | 0.181 | 0.202 | 0.174 |  | 0.995 | 1.07 | 1.62 |
| NCI-H727 | 0.746 | 0.741 | 0.948 | 0.884 | 0.389 | 0.671 | 0.551 | 0.657 | 0.748 | 0.782 | 0.802 | 0.704 | 0.448 | 0.704 | 0.734 | 0.563 | 0.546 | 0.64 | 0.759 | 0.502 |
